Patent publication US7375203B2, “Canine cold- and menthol-sensitive receptor 1” (Janssen Pharmaceutica N.V., priority 2004, dated 2008)
Entries after “also recorded” stand apart in the source; their conditions may differ.

Key:
[1] = system: cCMR1 channel; assay: Whole-cell patch clamp recording of HEK293 cells stably transfected with cCMR1; assay type: cell-based, canine
Description: HEK293 cells stably transfected with canine cCMR1 were cultured in DMEM supplemented with 10% fetal bovine serum, 100 units/ml penicillin, 100 μg/ml streptomycin and 1 mg/ml G418. Cells were maintained at 37° C. and in 5% CO2. Unless otherwise indicated, the standard extracellular solution used for recording contained (in mM): NaCl, 132; EGTA, 1; KCl, 5.4; MgCl2, 0.8; HEPES, 10; glucose, 10; pH=7.4. In experiments where the extracellular solution contained Ca^2+, the extracellular solution used was one of the following (in mM), depending on the Ca^2+ concentration used: (1) NaCl, 132; CaCl2, 0.1 or 1.8; KCl, 5.4; MgCl2, 0.8; HEPES, 10; glucose, 10; pH=7.4; (2) NaCl, 116; CaCl2, 10; KCl, 5.4; MgCl2, 0.8; HEPES, 10; glucose, 10; pH=7.4. The intracellular solution used to fill recording pipettes contained (in mM): CsCl, 145; EGTA, 5; HEPES, 10; glucose, 5; pH=7.4. Recordings were performed using the conventional whole-cell patch clamp technique, 1-2 days after plating cells onto glass coverslips at densities appropriate for single cell recording. Currents were amplified by a patch clamp amplifier and filtered at 2 kHz (Axopatch 200B, Axon Instruments). […] Recordings involving agonist stimulations were performed at 22° C. In experiments where temperatures were varied, temperature ramps were generated by heating/cooling the perfusate in a dual in-line heater/cooler (Model SC-20, Warner Instruments, Hamden, Conn.) controlled by a bipolar temperature controller (Model CL-100, Warner Instruments). The temperature in the vicinity of the recorded cell was measured with a custom-made miniature thermo-microprobe connected to a monitoring thermometer (Model TH-8, Physitemp, Clifton, N.J.), and sampled using Digidata 1322A and pClamp 9.0 (Axon Instruments, Union City, Calif.), as were the currents concurrently measured in the whole-cell patch clamp mode. Two voltage protocols were used in these studies. The first involved a 600 ms voltage ramp from −100 mV to +60 mV at a sampling rate of 10 kHz. This voltage pulse was repeated once every 5 seconds. The cell was held at −100 mV between voltage pulses. In the second protocol, the cell was held at −80 mV and the current was continuously sampled (at 100 Hz) at this holding potential.

[2] = system: canine CMR1 (cCMR1); assay: Cell-based calcium influx (FLIPR) assay on HEK293 cells stably transfected with cCMR1; conditions: for calcium-mediated fluorescence (calcium influx): added at 200 seconds, room temperature
Description: The following day, the cells were loaded with buffer and calcium dye (Molecular Devices, Sunnyvale, Calif.) in a final volume of 40 μl and incubated for 30 minutes at room temperature. The fluorescence intensity was measured by FLIPR before and after the addition of menthol or icilin, which were added to the cells at a concentration of 100 μM or 10 μM each, respectively.
HEK293 cells stably transfected with cCMR1 were seeded in a 384 will plate at a concentration of […] and incubated overnight at 37° C./5% CO2. The following day the cells were loaded with calcium dye and incubated for 30 minutes at room temperature. The calcium-mediated fluorescence intensity was measured by FLIPR before and after the compound was administered to the cells.

SMILES: [Ca+2] [extracellular Ca^2+]
- desensitization of menthol-activated cCMR1 current ([1]; 1.8 mM extracellular Ca^2+, 100 μM menthol, −80 mV): desensitization readily occurred
- voltage dependence of inhibition of cCMR1 current amplitude ([1]; 10 mM extracellular Ca^2+, channel activated by 1 mM menthol): strongly inhibited the current amplitude at hyperpolarized potentials
- IC50 ([1]; voltage-clamped at −80 mV, channel activated by 1 mM menthol, logistic best fit, read-out: IC50 of inhibition of cCMR1 current amplitude by extracellular Ca^2+): 1600 µM

SMILES: O=C1NC(c2cccc([N+](=O)[O-])c2)=CCN1c1ccccc1O [icilin]
- whole-cell current amplitude, rectification and reversal potential ([1]; icilin (1 μM), voltage ramp protocol, compared with the menthol results): Qualitatively similar results
- calcium-mediated fluorescence (activation of cCMR1) ([2]; 100 nM icilin (positive control)): sensitive; also recorded: increase in calcium-mediated fluorescence
- calcium-mediated fluorescence (calcium influx) ([2]; 10 μM icilin): increase in calcium-mediated fluorescence

SMILES: CC1CCC(C(C)C)C(O)C1 (centres unmarked) [menthol]
- reversal potential of the menthol-activated current ([1]; 100 μM menthol, voltage ramp protocol): ~0 mV
- whole-cell current amplitude ([1]; 100 μM menthol, voltage ramp −100 mV to +60 mV, 22° C., compared to buffer control): large increase of the whole-cell current amplitude
- current activated in the absence of extracellular Ca^2+ ([1]; 100 μM menthol, −80 mV, no extracellular Ca^2+): activated a non-desensitizing current
- calcium-mediated fluorescence (calcium influx) ([2]; 100 μM (−)-menthol): increase in calcium-mediated fluorescence

SMILES: C=CCN=C=S [mustard oil]
- calcium-mediated fluorescence (activation of cCMR1) ([2]; 1 mM mustard oil): activated; also recorded: increase in calcium-mediated fluorescence
